Measurements: US11459313B2, “Aziridinyl and amino dimeric naphthoquinone compounds and use for acute myeloid leukemia” (University of Maryland, Baltimore, priority 2016, dated 2022)
Entries after “also recorded” stand apart in the source; their conditions may differ. Like-named read-outs stand apart in the source and are kept apart here.

Tests used:
MOLM-14 cells [1] = assay: WST-1 cell proliferation assay, MOLM-14; assay type: cell-based, human; settings: Homo sapiens
Method: (§1) Cell lines were seeded into 96-well plates the afternoon prior to treatment. Approximately 18 hours later, bis and mono-aziridine dimeric naphthoquinone compounds were semi-serially diluted in dimethyl sulfoxide (DMSO) and then growth medium, and added to cells. Plates were incubated for 72 hours prior to addition of WST-1 (Promega®). Plates were read after 4 additional hours of incubation at 37° C. using a Bio-Tek Synergy® HT plate reader (Bio-Tek®). Data were analyzed and graphed using GraphPad Prism® Software (Graph Pad®).
(§2) Primary AML cells from patients and cell lines were seeded into 96-well plates the afternoon prior to treatment. Eighteen hours later, amino-dimeric naphthoquinone Compounds 106, 101, and 114 were semi-serially diluted in dimethyl sulfoxide (DMSO) and then growth medium, and added to the cells. In order to quantitate proliferation of metabolically active cells, plates were incubated for 72 hours for cell lines and 48 hours for primary AML cells prior to addition of water-soluble tetrazolium (WST-1) (Clontech®). Plates were read after four additional hours of incubation at 37° C. using a Bio-Tek Synergy® HT plate reader (Bio-Tele®). Data were analyzed and graphed using GraphPad Prism® Software (GraphPad®). IC50 was defined as the concentration that decreases viable cell numbers by 50%. IC50 values were calculated as mean±standard deviation from at least two independent experiments. If availability of primary blasts was limited, the IC50 was obtained from a single experiment.
To investigate antiproliferative activity of amino-dimeric naphthoquinones against AML cells, an MTT-like cell proliferation assay was performed in the AML cell lines using WST-1 (water soluble tetrazolium salts; Promega®). MOLM-14 and AML-D cells, as well as normal hematopoietic bone marrow cells from a healthy donor, were exposed to a range of concentrations of Compound 101. Human leukemia cells were cultured in the presence of the compound for 72 hours (48 hours for primary cells) and WST-1 reagent was then added. The cells then were monitored for cell growth or the number of cells proliferating and the IC50 calculated. The IC50 is the concentration at which 50% of the cells are not proliferating compared to control cells treated with vehicle. See FIG. 2A, FIG. 2B, and FIG. 2C for representative graphs of these IC50 determinations.

MV4-11 cells = assay: WST-1 cell proliferation assay, MV4-11; assay type: cell-based, human; settings: Homo sapiens, MV4-11, Example 5 text; read-out: IC50 MV4-11
Method: as §1, §2

THP-1 cells [2] = assay: WST-1 cell proliferation assay, THP-1; assay type: cell-based; settings: Homo sapiens, THP-1
Method: as §1, §2

MOLM-14 cells [3] = assay: Clonogenic assay, MOLM-14; assay type: cell-based, human; settings: 24 hours exposure, then methylcellulose; p<0.05 at 1, 10 and 100 μM
Method: MOLM-14 and THP-1 were treated with either DMSO control or mono-aziridine dimeric naphthoquinone or bis-aziridinyl dimeric naphthoquinone compounds at concentrations of 0.1, 1, 10 and 100 μM (micromolar) for 24 hours. The cells then were washed with growth medium and resuspended in growth medium and methylcellulose with or without DMSO or the treatment compounds. After 7 or 13 days (MOLM-14 or THP-1, respectively), treatment was terminated by addition of 1.0 mg/mL, iodonitrotetrazolium chloride (INT; Sigma Aldrich®) and read 24 hours later with an automated colony counter (Symbiosis®). Data were analyzed and graphed using GraphPad Prism® software.
Next, the effect of bis-aziridinyl-dimeric naphthoquinone Compound 101 on AML cell survival and viability. […] For colony formation assays, cell lines were treated with the indicated doses of aziridinyl dimeric naphthoquinone Compound 101 for 24 hours, and subsequently washed and plated in methylcellulose to observe clonogenic potential after 7-10 days. See above for additional comments on the methods.
Clonogenic inhibition was […] when bis-aziridinyl dimeric naphthoquinone was removed from cells after 24 hours of treatment. The bis-aziridinyl dimeric naphthoquinone was able to reduce clonogenicity with just a 24-hour exposure prior to plating.

THP-1 cells [4] = assay: Cell survival assay (trypan blue exclusion), THP-1; assay type: cell-based, human; settings: 72 hours; at 1, 10 and 100 μM
Method: MOLM-.14 and THP-1 cells were seeded in 96-well plates and treated with DMSO, mono- and bis-aziridinyl dimeric naphthoquinone compounds, or dimethylamine dimeric naphthoquinone Compound 114 as previously described. Cells were incubated for 72 hours, and then counted using trypan blue exclusion on the Countess® automated cell counter (Life Technologies®). Cell counts were performed in duplicates, and the averages were graphed using GraphPad Prism® software (GraphPad®).
Cell survival was determined using trypan blue exclusion, in which cells are plated and the following day treated similarly to the proliferation assay. The bis-aziridinyl dimeric naphthoquinone Compound 101 was effective in decreasing cell number at increasing concentrations of compound in MOLM-14 and THP1 cells.

MOLM-14 cells [5] = assay: Gamma-H2Ax immunofluorescence assay, MOLM-14; assay type: cell-based, human; settings: 24 hours; 200 nM, 1.0 and 2.0 μM
Method: MOLM-14 cells were seeded in the afternoon and the following morning treated with DMSO, or aziridinyl-dimeric naphthoquinone Compound 101 at 1×, 5×; or 10× IC50 concentrations. Cells were harvested at 24 and 48 hours. Briefly, cells were washed twice with PBS, counted, and resuspended into PBS/2% FBS. Approximately 150,000 cells were pelleted on Superfrost® microslides (Thermo Fisher Scientific®) using a cytospin machine (Thermo Fisher Scientific®) for 10 minutes at 800 RPM. Slides were air-dried for 5 minutes, then fixed in 4% paraformaldehyde for 15 minutes, washed with PBS 3 times, each time for 5 minutes and permeabilized with permeabilization buffer (50 mM NaCl, 3 mM MgCl2, 10 mM HEPES, 200 mM sucrose, and 0.5% Triton-X-100) for 10 minutes. After overnight blocking in PBS/10% FBS, slides were washed 3 times, each time for 5 minutes with wash buffer (PBS, 1% BSA, and 0.1% Triton-X-100), stained with 1:100 anti-phosphohistone H2Ax antibody (Millipore®), washed with wash buffer again 3 times, each time for 5 minutes, and stained with 1:200 goat anti-mouse IgG, Dylight 594® (Thermo Scientific®), washed 3 times, each time for 5 minutes with wash buffer, and mounted with Vectashield® mounting medium with 4′,6-diamidino-2-phenylindole (DAPI, Vector Labs®). Slides sat overnight and were sealed the following day with clear nail polish. […]

Work on `O=C1C(C2=C(N3CC3)C(=O)c3ccccc3C2=O)=C(N2CC2)C(=O)c2ccccc21` [Compound 101, 3,3′-di(aziridin-1-yl)-[2,2′-binaphthalene]-1,1 4,4′-tetrone] yielded an IC50 (MOLM-14 cells [1]; MOLM-14, 72 h, 72 hours, WST-1, read-out: IC50 against MOLM-14 cells) of 150 to 200 nM, an IC50 (MOLM-14 cells [1]; MOLM-14, Example 5 text, read-out: IC50 MOLM-14) of 180 ± 60 nM and an IC50 (MOLM-14 cells [1]; MOLM-14, Table 5, read-out: IC50 MOLM-14 (n)) of 250 ± 200 nM. It also gave an IC50 (MV4-11 cells) of 1050 ± 50 nM, an IC50 (THP-1 cells [2]; Example 5, read-out: IC50 THP-1) of 650 ± 300 nM and an IC50 (THP-1 cells [2]; Table 5, read-out: IC50 THP1 (n)) of 1600 ± 1000 nM. For the same compound, the “clonogenic activity (colony formation), MOLM-14” value (MOLM-14 cells [3]) was “marked reduction in clonogenic activity; also recorded: inhibits clonogenicity”, the “viable cells, THP-1” value (THP-1 cells [4]) was “statistically significant (p<0.05) reduction in viable cells” and the “γ-H2Ax phosphorylation (double-stranded DNA breaks), MOLM-14” value (MOLM-14 cells [5]) was “substantial γ-H2Ax phosphorylation”.
